Patent US9908893B2 (Latvian Institute of Organic Synthesis, priority 2013, dated 2018)
Like-named read-outs stand apart in the source and are kept apart here.

Legend:
[1] = tested on: A7R5 (rat aorta smooth muscle) cells; assay: Intracellular Ca2+ measurements, Fluo-4 NW Calcium Assay Kit, KCl-induced [Ca2+]i increase; type: cell-based; conditions: for Ca^2+ antagonist effect compared with Verapamil: relative to Verapamil
Method: Changes in intracellular [Ca^2+] concentration were studied using A7R5 (rat aorta smooth muscle) cells and Fluo-4 NW Calcium Assay Kit (“Invitrogen”, Sweden) according to manufacturer's instructions.
Changes in intracellular [Ca^2+]i concentration were studied using Fluo-4 NW Calcium Assay Kit (“Invitrogen”, Sweden) accordingly to manufacturer's instructions. The A7R5 (rat aorta smooth muscle) cells were grown at 37° C. in a humidified atmosphere with 5% CO2/95% air in DMEM medium containing 2 mM glutamine and supplemented with 10% FBS. The cells were seeded into 96 well plate at 10,000 cells/well and incubated for 72 h. The cells were loaded with […] for 45 min. The Fura-4NW loaded cells were pre-incubated in the dark for 15 minutes with tested compounds at concentrations from 0.8 to 100 μM. Then A7R5 cells were pre-treated with 1.5 mM CaCl2 for 5 minutes and KCl (50 mM) was added to A7R5 cells to induce [Ca^2+]i increase. Amlodipine, the well-known calcium channel inhibitor was used as the positive control.

[2] = Basal toxicity test, neutral red, alternative LD50 calculated from IC50; conditions: mouse, LD50, alternative LD50 calculated by formula from IC50 in NIH 3T3 cells
Method: A low therapeutic index of chemotherapy agents is due to affecting not only cancer formation but also normal cells.
9,000 NIH 3T3 cells/well were placed into 96-well plates for 24 h and then exposed to the test compound over a range of eight concentration (1-1000 μg/ml) for 24 h. Upon that, the cells were incubated with the neutral red dye for 4 h and then OD was determined at 540 nm. […] The IC50 values were calculated using the program Graph Pad Prism® 4.0

[3] = Rattus norvegicus, A7R5, read-out: Ca^2+ A7R5, IC50
[4] = A7R5 cells, KCl (50 mM) induced [Ca2+]i increase, compounds 0.8 to 100 μM

Compound | IC50 [1, 3] [µM] | LD50 at 24 h [2] [mg/kg] | Ca^2+ antagonist effect compared with Verapamil ([1]; A7R5 cells) | Ca^2+ A7R5, IC50 [1, 4] | IC50 ([1]; A7R5 cells, KCl (50 mM) induced [Ca2+]i increase, compounds 0.8 to 100 μM, read-out: Ca^2+ A7R5, IC50) [µM]
CCOC(=O)c1c(C)nc2sc(C(=O)c3ccc(OC)cc3)c(N)c2c1-c1ccc(OC)cc1 [Compound 17, 3-Amino-2-(4-methoxybenzoyl)-4-(4-methoxyphenyl)-6-methylthieno[2,3-b]-pyridine-5-carboxylic acid ethyl ester] | 100 ± 11 | > 2000 |  |  | 
COCCOC(=O)c1c(C)nc2sc(C(=O)c3ccc(OC)cc3OC)c(N)c2c1-c1cc(OC)c(OC)c(OC)c1 [Compound 35, 3-Amino-2-(2,4-dimethoxybenzoyl)-6-methyl-4-(3,4,5-trimethoxyphenyl)-thieno[2,3-b]pyridine-5-carboxylic acid 2-methoxyethyl ester] | 9 ± 1 | > 2000 | more than ten times lower |  | 
CCOC(=O)c1c(-c2cc(OC)c(OC)c(OC)c2)nc2sc(C(=O)c3cc(OC)c(OC)c(OC)c3)c(N)c2c1-c1cc(OC)c(OC)c(OC)c1 [Compound 40, 3-Amino-4,6-bis-(3,4,5-trimethoxyphenyl)-2-(3,4,5-trimethoxybenzoyl)-thieno[2,3-b]pyridine-5-carboxylic acid ethyl ester] |  | > 2000 |  | No effect | 
COc1ccc(C(=O)c2sc3nc(C)c(C(C)=O)c(-c4cc(OC)c(OC)c(OC)c4)c3c2N)cc1 [Compound 3, 5-Acetyl-3-amino-2-(4-methoxybenzoyl)-6-methyl-4-(3,4,5-trimethoxyphenyl)-thieno[2,3-b]pyridine] | 14 ± 0.9 | > 2000 | more than ten times lower |  | 
COC(=O)c1c(C)nc2sc(C(=O)c3ccc(OC)cc3)c(N)c2c1-c1ccc(OC)cc1 [Compound 5, 3-Amino-2-(4-methoxybenzoyl)-4-(4-methoxyphenyl)-6-methyl-thieno[2,3-b]-pyridine-5-carboxylic acid methyl ester] | 15.4 ± 2 | > 2000 |  |  | 
CCOC(=O)c1c(C)nc2sc(C(=O)c3ccc(Cl)cc3)c(N)c2c1-c1cc(OC)c(OC)c(OC)c1 [Compound 23, 3-Amino-2-(4-chlorobenzoyl)-4-(3,4,5-trimethoxyphenyl)-6-methylthieno[2,3-b]-pyridine-5-carboxylic acid ethyl ester] | 4 ± 0.4 | 2700 |  |  | 
CCOC(=O)c1c(C)nc2sc(C(=O)c3ccc(OC)cc3)c(N)c2c1-c1ccc(OC)c(OC)c1 [Compound 20, 3-Amino-4-(3,4-dimethoxyphenyl)-2-(4-methoxybenzoyl)-6-methylthieno[2,3-b]-pyridine-5-carboxylic acid ethyl ester] | 3 ± 0.4 | 2040 |  |  | 
COCCOC(=O)c1c(C)nc2sc(C(=O)c3ccc(OC)cc3)c(N)c2c1-c1cc(OC)c(OC)c(OC)c1 [Compound 34, 3-Amino-2-(4-methoxybenzoyl)-6-methyl-4-(3,4,5-trimethoxyphenyl)thieno[2,3-b]-pyridine-5-carboxylic acid 2-methoxyethyl ester] | 3.1 ± 0.4 | > 2000 | more than ten times lower |  | 
CCOC(=O)c1c(C)nc2sc(C(=O)c3ccc(Cl)cc3)c(N)c2c1-c1ccc(OC)c(OC)c1 [Compound 19, 3-Amino-2-(4-chlorobenzoyl)-4-(3,4-dimethoxyphenyl)-6-methylthieno[2,3-b]-pyridine-5-carboxylic acid ethyl ester] | 11 ± 0.7 | > 2000 |  |  | 
CCOC(=O)c1c(C)nc2sc(C(=O)c3ccc(OC)cc3OC)c(N)c2c1-c1ccc(OC)c(OC)c1 [Compound 21, 3-Amino-2-(2,4-dimethoxybenzoyl)-4-(3,4-dimethoxyphenyl)-6-methyl-thieno[2,3-b]pyridine-5-carboxylic acid ethyl ester] | 1.2 ± 0.2 | 2360 |  |  | 
CCOC(=O)c1c(C)nc2sc(C(=O)c3ccc(OC)cc3)c(N)c2c1-c1ccc(Cl)cc1 [Compound 28, 3-Amino-4-(4-chlorophenyl)-2-(4-methoxybenzoyl)-6-methylthieno[2,3-b]-pyridine-5-carboxylic acid ethylester] | > 100 | > 2000 |  |  | 
CCCOCCOC(=O)c1c(C)nc2sc(C(=O)c3ccc(OC)cc3OC)c(N)c2c1-c1cc(OC)c(OC)c(OC)c1 [Compound 37, 3-Amino-2-(2,4-dimethoxybenzoyl)-6-methyl-4-(3,4,5-trimethoxyphenyl)-thieno[2,3-b]pyridine-5-carboxylic acid 2-propoxyethyl ester] |  |  |  |  | > 100
CCOC(=O)c1c(C)nc2sc(C(=O)c3ccc(F)cc3)c(N)c2c1-c1ccc(OC)c(OC)c1 [Compound 18, 3-Amino-4-(3,4-dimethoxyphenyl)-2-(4-fluorobenzoyl)-6-methylthieno[2,3-b]-pyridine-5-carboxylic acid ethyl ester] | 7 ± 1.2 | > 2000 |  |  | 
CCOC(=O)c1c(C)nc2sc(C(=O)c3ccc(OC)cc3)c(N)c2c1-c1ccc(O)cc1 [Compound 14, 3-Amino-4-(4-hydroxyphenyl)-2-(4-methoxybenzoyl)-6-methylthieno[2,3-b]-pyridine-5-carboxylic acid ethyl ester] | 4.3 ± 0.7 | 231 |  |  | 
COC(=O)c1c(C)nc2sc(C(=O)c3ccc(F)cc3)c(N)c2c1-c1cc(OC)c(OC)c(OC)c1 [Compound 8, 3-Amino-2-(4-fluorobenzoyl)-6-methyl-4-(3,4,5-trimethoxyphenyl)thieno[2,3-b]-pyridine-5-carboxylic acid methyl ester] | 3 ± 0.8 | > 2000 |  |  | 
COCCOC(=O)c1c(C)nc2sc(C(=O)c3ccc(OC)cc3)c(N)c2c1-c1ccc(OC)cc1 [Compound 31, 3-Amino-2-(4-methoxybenzoyl)-4-(4-methoxyphenyl)-6-methylthieno[2,3-b]-pyridine-5-carboxylic acid 2-methoxyethyl ester] | 21 ± 4 | > 2000 |  |  | 
CCOC(=O)c1c(C)nc2sc(C(=O)c3ccc(F)cc3)c(N)c2c1-c1cc(OC)c(OC)c(OC)c1 [Compound 22, 3-Amino-2-(4-fluorobenzoyl)-4-(3,4,5-trimethoxyphenyl)-6-methylthieno[2,3-b]-pyridine-5-carboxylic acid ethyl ester] | 20 ± 2 | > 2000 | more than ten times lower |  | 
COC(=O)c1c(C)nc2sc(C(=O)c3ccc(Cl)cc3)c(N)c2c1-c1cc(OC)c(OC)c(OC)c1 [Compound 9, 3-Amino-2-(4-chlorobenzoyl)-6-methyl-4-(3,4,5-trimethoxyphenyl)thieno[2,3-b]-pyridine-5-carboxylic acid methyl ester] | 3 ± 0.2 | 1420 |  |  | 
COCCOC(=O)c1c(C)nc2sc(C(=O)c3ccccc3)c(N)c2c1-c1cc(OC)c(OC)c(OC)c1 [Compound 32, 3-Amino-2-benzoyl-6-methyl-4-(3,4,5-trimethoxyphenyl)thieno[2,3-b]pyridine-5-carboxylic acid 2-methoxyethyl ester] | 2.2 ± 0.3 | > 2000 | more than ten times lower |  | 
CCOC(=O)c1c(-c2cc(OC)c(OC)c(OC)c2)nc2sc(C(=O)c3ccc(OC)cc3)c(N)c2c1-c1cc(OC)c(OC)c(OC)c1 [Compound 39, 3-Amino-4,6-bis-(3,4,5-trimethoxyphenyl)-2-(4-methoxybenzoyl)thieno[2,3-b]-pyridine-5-carboxylic acid ethyl ester] |  | > 2000 |  | No effect | 
COc1ccc(C(=O)c2sc3nc(C)cc(C)c3c2N)c(OC)c1 [Compound 45, 3-Amino-4,6-dimethyl-2-(2,4-dimetoxybenzoyl)thieno[2,3-b]pyridine] |  | 959 |  |  | 
COc1ccc(C(=O)c2sc3nc(C)c(C(C)=O)c(-c4cc(OC)c(OC)c(OC)c4)c3c2N)c(OC)c1 [Compound 4, 5-Acetyl-3-amino-2-(2,4-dimethoxybenzoyl)-6-methyl-4-(3,4,5-trimethoxyphenyl)-thieno[2,3-b]pyridine] |  | 1070 |  | No effect | 
CCOC(=O)c1c(C)nc2sc(C(=O)c3ccc(OC)cc3)c(N)c2c1-c1ccc(O)c(OC)c1 [Compound 16, 3-Amino-4-(4-hydroxy-3-methoxyphenyl)-2-(4-methoxybenzoyl)-6-methyl-thieno[2,3-b]pyridine-5-carboxylic acid ethyl ester] | 3.7 ± 0.4 | > 2000 | more than ten times lower |  | 
COc1ccc(C(=O)c2sc3nc(C)c(C(C)=O)c(-c4ccc(OC)c(OC)c4)c3c2N)cc1 [Compound 1, 5-Acetyl-3-amino-4-(3,4-dimethoxyphenyl)-2-(4-methoxybenzoyl)-6-methyl-thieno[2,3-b]pyridine] | 24 ± 1.2 | > 2000 |  |  | 
COC(=O)c1c(C)nc2sc(C(=O)c3ccc(OC)cc3OC)c(N)c2c1-c1ccc(OC)c(OC)c1 [Compound 7, 3-Amino-2-(2,4-dimethoxybenzoyl)-4-(3,4-dimethoxyphenyl)-6-methyl-thieno[2,3-b]pyridine-5-carboxylic acid methyl ester] | 5.6 ± 1.4 | 1040 |  |  | 
